Experimental data as given in patent publication US6825230B2, “Spiro and dispiro 1,2,4-trixolane antimalarials” (Medicines for Malaria Venture MMV, priority 2002, dated 2004).
Converted amounts (≈) assume the structure as drawn. Where two headings read alike, the source gives them in different places.

Tests used:
[1] = tested on: chloroquine-resistant K1 strain of P. falciparum; test: In vitro antimalarial semiautomated microdilution assay ([3H]-hypoxanthine incorporation), K1 strain; assay type: cell-based, Plasmodium falciparum; details: Plasmodium falciparum
Outline: (§1)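 Logit regression analysis yields the fifty percent inhibitory concentration. Compounds are tested by semiautomated microdilution on intraerythrocytic parasites drawn from asynchronous stock cultures, measuring [3H]-hypoxanthine incorporation.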

[2] = tested on: chloroquine-sensitive NF54 strain of P. falciparum; test: In vitro antimalarial semiautomated microdilution assay ([3H]-hypoxanthine incorporation), NF54 strain; assay type: cell-based, Plasmodium falciparum; details: Plasmodium falciparum
Outline: as §1

[3] = tested on: ANKA strain of P. berghei; test: Single dose STI in vivo screen in infected mice; set-up: species or system Plasmodium berghei; details: for Survival (days) 10 mg/kg po: single 10 mg/kg po in 3% ethanol and 7% Tween 80; for Survival (days) 10 mg/kg po / Survival (days) 10 mg/kg SSV po / Survival (days) 10 mg/kg sc: untreated 6-7 days; for Activity (%) 10 mg/kg po: single 10 mg/kg po in 3% ethanol and 7% Tween 80 on day 1 post-infection; for Activity (%) 10 mg/kg po / Activity (%) 10 mg/kg SSV po / Activity (%) 10 mg/kg sc / Activity (%) 3 mg/kg SSV po: percent reduction in parasitemia on day 3; for Survival (days) 10 mg/kg SSV po: single 10 mg/kg po in SSV; for Activity (%) 10 mg/kg SSV po: single 10 mg/kg po in standard suspending vehicle (SSV) on day 1 post-infection; for Survival (days) 10 mg/kg sc: single 10 mg/kg sc in 3% ethanol and 7% Tween 80; for Activity (%) 10 mg/kg sc: single 10 mg/kg sc in 3% ethanol and 7% Tween 80 on day 1 post-infection; for Survival (days) 3 mg/kg SSV po / Activity (%) 3 mg/kg SSV po: single 3 mg/kg po in SSV
[4] = K1, 72 h, read-out: IC50 (ng/ml) K1, chloroquine-resistant K1 strain, 72 h incubation
[5] = NF54, 72 h, read-out: IC50 (ng/ml) NF54, chloroquine-sensitive NF54 strain, 72 h incubation
[6] = chloroquine-resistant K1 strain, 72 h incubation, read-out: IC50 (ng/ml) K1
[7] = chloroquine-sensitive NF54 strain, 72 h incubation, read-out: IC50 (ng/ml) NF54

Structure (SMILES) | IC50 [1, 4] | IC50 [2, 5] | Survival (days) 10 mg/kg po [3] | Activity (%) 10 mg/kg po [3] | Survival (days) 10 mg/kg SSV po [3] | Activity (%) 10 mg/kg SSV po [3] | Survival (days) 10 mg/kg sc [3] | Activity (%) 10 mg/kg sc [3] | IC50 [1, 6] | IC50 [2, 7] | Survival (days) 3 mg/kg SSV po [3] | Activity (%) 3 mg/kg SSV po [3]
CC(=O)Nc1ccc(S(=O)(=O)N2CCC3(CC2)OOC2(O3)C3CC4CC(C3)CC2C4)cc1 (centres unmarked) [OZ104, Adamantane-2-spiro-3′-8′-[[4-(acetylamino)phenyl]sulfonyl]-1′,2′,4′-trioxa-8′-azaspiro[4.5]decane] | 1.4 ng/mL (≈ 3.03 nM) | 0.5 ng/mL (≈ 1.08 nM) | 6.3 days | 56% | 5.7 days | 0% | 12.0 days | 99.98% | – | – | – | –
O=C(O)COCC(=O)N1CCC2(CC1)OOC1(O2)C2CC3CC(C2)CC1C3 (centres unmarked) [OZ112, Adamantane-2-spiro-3′-8′-[(carboxymethoxy)acetyl]-1′,2′,4′-trioxa-8′-azaspiro[4.5]decane] | > 10 ng/mL | > 10 ng/mL | 5.7 days | 6% | 5.7 days | 0% | 6.3 days | 36% | – | – | – | –
O=C1c2ccccc2C(=O)N1C[C@H]1CC[C@]2(CC1)OOC1(O2)C2CC3CC(C2)CC1C3 (some centres unmarked) [OZ146] | – | – | 7.0 days | 62% | 6.3 days | 40% | 9.0 days | 91% | 2.2 ng/mL (≈ 5.19 nM) | 2.7 ng/mL (≈ 6.38 nM) | – | –
COC(=O)c1ccc(C2(c3ccc(C(=O)OC)c(C(=O)OC)c3)OOC3(O2)C2CC4CC(C2)CC3C4)cc1C(=O)OC (centres unmarked) [OZ106, Adamantane-2-spiro-3′-5′,5′-bis[3′,4′-di(methoxycarbonyl)phenyl]-1′,2′,4′-trioxolane] | 2.2 ng/mL (≈ 3.79 nM) | 1.7 ng/mL (≈ 2.93 nM) | 5.3 days | 0/0/0% | 5.0 days | 0/0/0% | 5.3 days | 0/0/0% | – | – | – | –
COC(=O)c1cncn1C[C@H]1CC[C@]2(CC1)OOC1(O2)C2CC3CC(C2)CC1C3 (some centres unmarked) [OZ223] | – | – | 7.3 days | 89% | 6.3 days | 79% | 12.0 days | 99.57% | 4 ng/mL (≈ 9.94 nM) | > 10 ng/mL | – | –
COCC(=O)N[C@H]1CC[C@]2(CC1)OOC1(O2)C2CC3CC(C2)CC1C3 (some centres unmarked) [OZ186] | > 10 ng/mL | > 10 ng/mL | 8.0 days | 87% | 9.0 days | 96% | 8.0 days | 67% | – | – | – | –
COC(=O)C1(c2ccccc2)CCC2(CC1)OOC1(O2)C2CC3CC(C2)CC1C3 (centres unmarked) [OZ98] | 2.3 ng/mL (≈ 5.77 nM) | 0.9 ng/mL (≈ 2.26 nM) | 6.3 days | 72% | 5.3 days | 11% | 7.3 days | 77% | – | – | – | –
CCOC(=O)c1ccc(OC[C@H]2CC[C@]3(CC2)OOC2(O3)C3CC4CC(C3)CC2C4)cc1 (some centres unmarked) [OZ166] | 28 ng/mL (≈ 63.3 nM) | > 10 ng/mL | 6.7 days | 11% | 6.3 days | 0% | 5.7 days | 4% | – | – | – | –
C1C2CC3CC1CC(C2)C31OO[C@]2(CC[C@@H](CN(C[C@H]3CC[C@]4(CC3)OOC3(O4)C4CC5CC(C4)CC3C5)C3CC3)CC2)O1 (stereo partly drawn) [OZ254, N,N-Bis(cis-adamantane-2-spiro-3′-1′,2′,4′-trioxaspiro[4.5]decane-8′-methyl)cyclopropylamine] | – | – | 6.0 days | 27% | 5.7 days | 11% | 5.7 days | 2% | > 100 ng/mL | 57 ng/mL (≈ 93.5 nM) | – | –
O=[N+]([O-])c1cc(C2(c3ccc(Cl)c([N+](=O)[O-])c3)OOC3(O2)C2CC4CC(C2)CC3C4)ccc1Cl (centres unmarked) [OZ96, Adamantane-2-spiro-3′-5′,5′-bis(4′-chloro-3′-nitrophenyl)-1′,2′,4′-trioxolane] | 8.4 ng/mL (≈ 16.6 nM) | > 10 ng/mL | 5.7 days | 12% | 5.7 days | 14% | 5.3 days | 19% | – | – | – | –
CN(C)C(=O)NC[C@H]1CC[C@]2(CC1)OOC1(O2)C2CC3CC(C2)CC1C3 (some centres unmarked) [OZ266] | – | – | 13.7 days | 99% | 11.7 days | 99.39% | 11.7 days | 99.75% | 1.1 ng/mL (≈ 3.02 nM) | 1.5 ng/mL (≈ 4.12 nM) | – | –
CC(C)(N)CNC[C@H]1CC[C@]2(CC1)OOC1(O2)C2CC3CC(C2)CC1C3 (some centres unmarked) [OZ287] | – | – | – | – | 8.3 days | 95% | – | – | 0.49 ng/mL (≈ 1.34 nM) | 0.83 ng/mL (≈ 2.28 nM) | 7.2 days | 68%
CCOC(=O)N1C2CCC1CC1(C2)OOC2(O1)C1CC3CC(C1)CC2C3 (centres unmarked) [OZ110, Adamantane-2-spiro-3′-1′,2′,4′-trioxolane-5′-spiro-3″-8″-ethoxycarbonyl-8″-azabicyclo[3.2.1]octane] | 5.3 ng/mL (≈ 14.6 nM) | 2.1 ng/mL (≈ 5.78 nM) | 6.7 days | 50% | 5.3 days | 0% | 7.7 days | 97.97% | – | – | – | –
O=C(C[C@H]1CC[C@]2(CC1)OO[C@]1(O2)C2CC3CC(C2)CC1C3)N1CCC(O)CC1 [OZ297] | – | – | – | – | 9.8 days | 99.69% | – | – | 0.49 ng/mL (≈ 1.21 nM) | 0.76 ng/mL (≈ 1.87 nM) | 7.6 days | 83%
CCOC(=O)c1ccc([C@H]2CC[C@]3(CC2)OOC2(O3)C3CC4CC(C3)CC2C4)cc1 (some centres unmarked) [OZ164] | 9 ng/mL (≈ 21.8 nM) | > 10 ng/mL | – | 11% | 5.7 days | 0% | – | 7% | – | – | – | –
CC1(C)C2CCC1(CS(=O)(=O)N1CCC3(CC1)OOC1(O3)C3CC4CC(C3)CC1C4)C(=O)C2 (stereo not drawn) [OZ91, Adamantane-2-spiro-3′-8′-[(1′S)-10′-camphorsulfonyl]-1′,2′,4′-trioxa-8′-azaspiro[4.5]decane] | 1.4 ng/mL (≈ 2.92 nM) | 0.42 ng/mL (≈ 0.876 nM) | 5.7 days | 20% | 6.0 days | 0% | 7.3 days | 85% | – | – | – | –
O=C1c2ccccc2S(=O)(=O)N1C[C@H]1CC[C@]2(CC1)OOC1(O2)C2CC3CC(C2)CC1C3 (some centres unmarked) [OZ212] | – | – | 6.7 days | 66% | 6.7 days | 25% | 8.0 days | 59% | 2.7 ng/mL (≈ 5.88 nM) | 2.9 ng/mL (≈ 6.31 nM) | – | –
NNC(=O)C[C@H]1CC[C@]2(CC1)OO[C@]1(O2)C2CC3CC(C2)CC1C3 [OZ340] | 4.9 ng/mL (≈ 14.6 nM) | 2.9 ng/mL (≈ 8.62 nM) | – | – | 9.2 days | 93% | – | – | – | – | 6.4 days | 36%
CC(=O)OC(C)(C)C(=O)N[C@H]1CC[C@]2(CC1)OOC1(O2)C2CC3CC(C2)CC1C3 (some centres unmarked) [OZ202] | 6 ng/mL (≈ 14.7 nM) | 7.9 ng/mL (≈ 19.4 nM) | 7.0 days | 79% | 7.3 days | 51% | 7.3 days | 74% | – | – | – | –
c1ccc2c(c1)OCCC21OOC2(O1)C1CC3CC(C1)CC2C3 (centres unmarked) [OZ134, Adamantane-2-spiro-3′-1′,2′,4′-trioxolane-5′-spiro-4″-2″, 3″-dihydro-4″H-1″-benzopyran] | 0.88 ng/mL (≈ 2.8 nM) | 1.1 ng/mL (≈ 3.5 nM) | 6.3 days | 72% | 6.0 days | 27% | 15.3 days | 99.95% | – | – | – | –
NC1(C(=O)NC[C@H]2CC[C@]3(CC2)OO[C@]2(O3)C3CC4CC(C3)CC2C4)CCCC1 [OZ317] | – | – | – | – | 9.8 days | – | – | – | 0.33 ng/mL (≈ 0.816 nM) | 0.36 ng/mL (≈ 0.89 nM) | 10.0 days | –
c1cnn(C[C@H]2CC[C@]3(CC2)OOC2(O3)C3CC4CC(C3)CC2C4)c1 (some centres unmarked) [OZ211] | – | – | 8.0 days | 82% | 7.3 days | 78% | 8.7 days | 99.90% | 1 ng/mL (≈ 2.9 nM) | 1.2 ng/mL (≈ 3.48 nM) | – | –
